These results are taken from patent US20240366728A1, “Treatment of Diabetes Mellitus” (Carmot Therapeutics Inc., priority 2023, published 2024).

A short description of this data set: Phase 1 first-in-human SAD/MAD study: pharmacokinetics. The class given is in vivo. Particulars: for Tmax: median Tmax. The text has this:
This was a randomized, double-blind, placebo-controlled, dose escalation first-in-human (FIH) conducted from December 2018 to January 2020 at a study center in Victoria, Australia in accordance with principles of the Declaration of Helsinki (Ethical Principles for Medical Research Involving Human Subjects), and the NHMRC National Statement on Ethical Conduct in Human Research 2007 (updated 2018). (Registered on the Australian New Zealand Clinical Trials Registry [ANZCTR] under the identifier: ACTRN12618001988246).
Daily doses were given on Day 2 to Day 14. Cohort M1 was dosed with the highest dose level, determined based on the safety and PK data from the preceding Part 1 (SAD), and doses were decreased sequentially for Cohorts M2 and M3 (FIG. 46B).
Characterization of PK profile: PK parameters included maximum concentration (Cmax), time to maximum concentration (Tmax), area under the plasma concentration-time curve (AUC). Blood samples were collected within two hours prior to dosing for pre-dose samples and within ±10 minutes of the nominal/planned time post-dose. For Part 1 (SAD) participants, samples were taken at −2 to 0 hr (pre-dose), 1, 2, 3, 4, 6, 8, 12, 16, 20 hr (Day 1), 24, 30, 36 hr (Day 2), 48 hr (Day 3) and on Day 8 (±1 day, follow-up) post-dose. For Part 2 (MAD) participants, collection occurred −2 to 0 hr (pre-dose), 2, 3, 4, 6, 8, 12 hr (Day 1), 24 hr (Day 2), 48, 60 hr (Day 3), 72 hr (Day 4), 96 hr (Day 5). For Days 7, 8, 11 and 14, samples were taken −2 to 0 hr (pre-dose), 12 hr on Day 7, 2, 4, 6, 8, 12 hr on Day 14, 24, 36 hr on Day 15, 48 hr on Day 16 and on Day 21 (+1 day, follow-up) post-dose.
Estimates for PK parameters are tabulated and summarized by descriptive statistics (mean, standard deviation [SD], median, minimum, and maximum, coefficient of variation [CV %], geometric mean and geometric CV %). Dose proportionality was analyzed using the power model with log-transformed PK parameter values and log-transformed dose. The power model was used to estimate the slope parameter and the 90% confidence intervals (CIs) for the slope. Dose proportionality was generally concluded if the 90% CIs around the slope estimate include the value of 1.

One may read the Tmax as the time at which the peak concentration occurs. Broadly, the half-life is the time in which the quantity being followed falls by half. One may read the Cmax as the highest concentration seen after dosing. Consider `CCCCCCCCCCCCCCCC(=O)N[C@@H](CCC(=O)NCCCC[C@H](NC(=O)[C@H](CO)NC(=O)[C@@H]1CCCN1C(=O)[C@@H]1CCCN1C(=O)[C@@H]1CCCN1C(=O)[C@H](C)NC(=O)CNC(=O)[C@H](CO)NC(=O)[C@H](CO)NC(=O)[C@@H]1CCCN1C(=O)CNC(=O)CNC(=O)[C@H](C)NC(=O)[C@H](CC(C)C)NC(=O)[C@H](CC(C)C)NC(=O)[C@H](Cc1c[nH]c2ccccc12)NC(=O)[C@H](CC(N)=O)NC(=O)[C@@H](NC(=O)[C@H](Cc1ccccc1)NC(=O)[C@H](CCC(=O)O)NC(=O)C(C)(C)NC(=O)[C@H](C)NC(=O)[C@H](C)NC(=O)[C@H](CCC(N)=O)NC(=O)[C@H](CCCCN)NC(=O)[C@H](CC(=O)O)NC(=O)[C@H](CC(C)C)NC(=O)[C@H](Cc1ccc(O)cc1)NC(=O)[C@@H](NC(=O)[C@H](CO)NC(=O)[C@H](Cc1ccc(O)cc1)NC(=O)[C@H](CC(=O)O)NC(=O)[C@H](CO)NC(=O)[C@@H](NC(=O)[C@H](Cc1ccccc1)NC(=O)[C@@H](NC(=O)CNC(=O)[C@H](CCC(=O)O)NC(=O)CSCC(=O)NCCN1CCCCC1=O)[C@@H](C)O)[C@@H](C)O)[C@@H](C)CC)C(C)C)C(N)=O)C(=O)O` [CT-868], for which, for the setting “MAD 0.75-5.0 mg”, the “plasma concentrations after 14 days of dosing vs dose (in words)” value is on record as “dose-related but not dose-proportional” and the “plasma concentrations over repeated daily dosing (in words)” value is “reached a plateau after a few days of dosing”. Moreover, under “human, in vivo, 0.5 mg”, the Tmax is 3 h. In addition, under “human, in vivo, 1.5 mg”, the AUC0-t is 154.2 [45.7%] h*ng/ml; the AUC(0-inf) is 184.9 [47.6%] h*ng/ml; the “Cmax, geometric mean (% CV)” value is 5.62 [28.1%] ng/ml; the half-life was 4640 min. For the same compound, for the setting “human, in vivo, 1.5 mg”, the “median Tmax” value is 8.0 h and the time to peak (Tmax) is 6 h. Where the note is “human, in vivo, 1.5 mg, AUC0-inf”, this compound had an AUC(0-inf) of 209 ng·h/mL. In addition, under “human, in vivo, 1.5 mg, AUC0-t”, the AUC0-t was 167 ng·h/mL. Further, the peak level (human, in vivo, 1.5 mg, Cmax, geometric mean (% CV)) (Cmax) was 7.79 ng/mL. Besides, the Tmax (human, in vivo, 7.5 mg) was 20 h. The same compound showed a half-life (human, in vivo, 11 mg) of 1180 min. Besides, the time of peak concentration (Tmax) (human, in vivo, predominant range) fell in the range of 3 to 12 h. For the setting “in vivo”, the “mean Cmax vs dose (in words)” value was “increased with increasing dose level” and the “time to maximum plasma concentrations after the first dose” value is 48 to 96 h.
